# Assays:
# [1] = target: human GluN1/GluN2B NMDA receptors (Homo sapiens (Human), UniProt Q05586+Q13224); assay: Cell-based calcium flux (FLIPR) assay on cloned human NR1/NR2B ion channels expressed in mammalian cells; settings: standard assay, glutamate ~EC40, 10 μM glycine
# Method: (§1) Effects of Test Articles on Cloned Human NR1/NR2B Ion Channels Expressed in Mammalian Cells
# (§2) NMDA receptors are ion channels that are highly permeable to Ca^2+ ions, rendering it possible to monitor NMDA receptor function using cell-based calcium flux assay. In this assay, co-agonists glutamate and glycine are added to cells heterologously expressing human GluN1/GluN2B NMDA receptors to initiate cellular Ca^2+ influx. The time course of the changes in intracellular calcium is measured using a fluorescent dye and a FLIPR (Fluorometric Imaging Plate Reader) device.
# (§3) Twenty four hours before measurements, the expression of the NMDA receptors in the stable cell line is induced with Tet-On inducible system in the presence of a non-selective NMDA receptor blocker. On the day of the experiment, cell culture media is carefully washed and the cells are loaded with Calcium 5 Dye Kit (Molecular Devices) in dye loading buffer containing 137 mM NaCl, 4 mM KCl, 2 mM CaCl2), 0.5 mM MgCl2(standard assay) or 1.5 mM MgCl2 (HTS assay), 10 mM HEPES and 5 mM D-glucose; pH 7.4. After 1 h incubation at the room temperature, the dye is washed away with the assay buffer (137 mM NaCl (standard assay) or 150 mM (HTS assay), 4 mM KCl (standard assay) or 3 mM (HTS assay), 2 mM CaCl2), 0.01 mM EDTA, 10 mM HEPES and 5 mM D-glucose; pH 7.4) In the FLIPR TETRA reader, various concentrations of the test compounds are added to the cells for 5 min while fluorescence is monitored to detect potential agonist activity. Next, co-agonists, glutamate and glycine are added for another 5 minutes. The concentration of glutamate corresponding to ˜EC40 (standard assay) or EC40 (HTS assay) is used to maximize the assay's signal window and ability to detect NMDA receptor antagonists and negative allosteric modulators. A saturating concentration (10 μM) of glycine is also present in the assay. A non-selective NMDA receptor antagonist, (+)MK-801 is used as a positive control for antagonist activity. The fluorescent signal in the presence of test compounds is quantified and normalized to the signal defined by the appropriate control wells.
# [2] = Liver microsomal stability (extraction ratio); type: in vitro ADME; settings: test compound 1 μM; 0.5 mg/mL liver microsomes; species not stated in Table 4 (method: mouse, rat, and human)
# Method: Protocol for Liver Microsomal Stability (Extraction Ratio)
# Liver Microsomal Stability. Microsomal stability studies (Chrovian et al, “H-Pyrrolo[3,2-b]pyridine GluN2B-Selective Negative Allosteric Modulators”. ACS Med Chem Lett. 2019 Jan. 10; 10(3):261-266) were conducted on a Biomek@ FX Robotic Liquid Handling Workstation (Beckman Coulter, Brea, Calif.), which consists of a 96-channel pipette head, a 12-position workstation deck, and a plate incubator. Test compounds (1 μM) were spiked in a reaction mix consisting of 100 mM potassium phosphate buffer (pH 7.4), 3 mM MgCl2, and 0.5 mg/mL liver microsomes from mouse, rat, and human (BD Gentest). The reaction was brought to 37° C. and initiated by adding NADPH to a final concentration of 1 mM. After mixing on the plate deck, […] aliquots were excised from the reaction plate at 0, 5, 10, 20, 40, and 60 min and quenched with four volumes of acetonitrile spiked with […] of the internal standard phenytoin. Quenched plates were centrifuged at 5700 rpm for 10 min at 4° C., and supernatant was diluted 1:3 in water before LC/MS/MS analysis. The compound half-lives were derived from plots of the ln of percent remaining compound over time to determine the intrinsic clearance. The predicted hepatic clearance was derived from the intrinsic clearance value using equations from the well-stirred model (Current Drug Metabolism, 2008, 9, 940-951), where no correction was made plasma protein binding and the blood to plasma concentration ratio was assumed to be one. The extraction ratio (ER) was calculated by dividing the predicted hepatic clearance by species blood flow (Q), where Q is 90, 55, and 21.7 mL/min/kg for mouse, rat and human, respectively
# [3] = target: human GluN1/GluN2B NMDA receptors (Homo sapiens (Human), UniProt Q13224); assay: Cell-based calcium flux (FLIPR) assay on cloned human NR1/NR2B ion channels expressed in mammalian cells; settings: standard assay, glutamate ~EC40, 10 μM glycine
# human GluN1/GluN2B NMDA receptors (Homo sapiens (Human), UniProt Q13224), sequence (Q13224 27-1484, other chains not shown): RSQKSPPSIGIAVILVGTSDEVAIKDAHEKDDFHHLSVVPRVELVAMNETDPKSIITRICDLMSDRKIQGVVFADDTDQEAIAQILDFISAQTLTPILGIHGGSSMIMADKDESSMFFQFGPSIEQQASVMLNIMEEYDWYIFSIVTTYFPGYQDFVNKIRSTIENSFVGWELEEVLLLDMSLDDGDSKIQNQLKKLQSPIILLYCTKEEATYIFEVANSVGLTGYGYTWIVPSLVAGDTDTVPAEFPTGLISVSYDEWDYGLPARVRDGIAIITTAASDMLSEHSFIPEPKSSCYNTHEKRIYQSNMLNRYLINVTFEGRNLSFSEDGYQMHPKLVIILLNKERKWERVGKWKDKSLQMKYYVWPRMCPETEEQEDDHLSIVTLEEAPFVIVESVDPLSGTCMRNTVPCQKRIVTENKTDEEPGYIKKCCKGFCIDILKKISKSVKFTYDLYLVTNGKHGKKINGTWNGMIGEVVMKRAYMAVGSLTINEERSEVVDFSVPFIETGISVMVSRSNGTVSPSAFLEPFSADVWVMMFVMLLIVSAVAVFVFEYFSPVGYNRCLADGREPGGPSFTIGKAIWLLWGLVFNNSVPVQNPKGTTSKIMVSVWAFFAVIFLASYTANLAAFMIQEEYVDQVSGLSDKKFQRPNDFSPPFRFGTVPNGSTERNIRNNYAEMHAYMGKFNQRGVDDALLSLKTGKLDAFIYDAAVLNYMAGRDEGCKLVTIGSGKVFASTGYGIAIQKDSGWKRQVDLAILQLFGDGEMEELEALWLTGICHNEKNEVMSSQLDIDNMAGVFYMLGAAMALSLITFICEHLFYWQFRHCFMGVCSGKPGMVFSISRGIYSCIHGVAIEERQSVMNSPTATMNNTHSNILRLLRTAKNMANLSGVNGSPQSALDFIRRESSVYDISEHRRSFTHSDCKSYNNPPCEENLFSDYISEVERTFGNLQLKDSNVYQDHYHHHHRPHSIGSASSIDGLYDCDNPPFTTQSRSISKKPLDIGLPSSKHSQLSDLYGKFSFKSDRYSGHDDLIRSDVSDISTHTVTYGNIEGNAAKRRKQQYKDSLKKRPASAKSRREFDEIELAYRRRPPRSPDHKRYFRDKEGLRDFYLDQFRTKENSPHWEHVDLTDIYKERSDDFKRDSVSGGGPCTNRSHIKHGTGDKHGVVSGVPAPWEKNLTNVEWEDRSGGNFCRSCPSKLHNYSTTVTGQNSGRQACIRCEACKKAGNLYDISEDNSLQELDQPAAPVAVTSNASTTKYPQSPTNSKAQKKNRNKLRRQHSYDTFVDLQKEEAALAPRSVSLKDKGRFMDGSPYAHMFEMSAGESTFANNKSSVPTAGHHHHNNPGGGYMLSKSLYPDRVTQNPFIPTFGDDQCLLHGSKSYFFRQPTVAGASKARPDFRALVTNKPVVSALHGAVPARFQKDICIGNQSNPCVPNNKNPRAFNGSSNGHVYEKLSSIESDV
# Method: as §1, §2, §3
# human GluN1/GluN2B NMDA receptors (Homo sapiens (Human), UniProt Q05586+Q13224), sequence (Q13224 27-1484, other chains not shown): as above
IC50 [1] [nM],Extraction Ratio @ 1 μM [2],IC50 [3] [nM],SMILES
42,0.41,–,"CN(C)C(=O)Cn1ncc2ncc(-c3ccc(F)c(C(F)F)c3)nc21 [Example 10, 2-[6-[3-(Difluoromethyl)-4-fluoro-phenyl]pyrazolo[3,4-b]pyrazin-1-yl]-N,N-dimethyl-acetamide]"
36,0.54,–,"CN(C)C(=O)Cn1ncc2ncc(-c3ccc(Cl)c(C(F)F)c3)nc21 [Example 12, 2-[6-[4-Chloro-3-(difluoromethyl)phenyl]pyrazolo[3,4-b]pyrazin-1-yl]-N,N-dimethyl-acetamide]"
37,<0.298,–,"O=C(Cn1ncc2ncc(-c3ccc(F)c(C(F)F)c3)nc21)N1CCC1 [Example 24, 1-(Azetidin-1-yl)-2-[6-[3-(difluoromethyl)-4-fluoro-phenyl]pyrazolo[3,4-b]pyrazin-1-yl]ethanone]"
37,<0.298,–,"O=C(Cn1ncc2ncc(-c3ccc(F)c(C(F)F)c3)nc21)N1CC(F)C1 [Example 32, 2-[6-[3-(Difluoromethyl)-4-fluoro-phenyl]pyrazolo[3,4-b]pyrazin-1-yl]-1-(3-fluoroazetidin-1-yl)ethanone]"

# Second part, the compound before the results:
SMILES,IC50 [1] [nM],Extraction Ratio @ 1 μM [2],IC50 [3] [nM]
"O=C(Cn1ncc2ncc(-c3ccc(F)c(OC(F)F)c3)nc21)N1CCC1 [Example 28, 1-(Azetidin-1-yl)-2-[6-[3-(difluoromethoxy)-4-fluoro-phenyl]pyrazolo[3,4-b]pyrazin-1-yl]ethanone]",–,0.45,59
"O=C(Cn1ncc2ncc(-c3ccc(F)c(OC(F)F)c3)nc21)N1CC(F)C1 [Example 37, 2-[6-[3-(Difluoromethoxy)-4-fluoro-phenyl]pyrazolo[3,4-b]pyrazin-1-yl]-1-(3-fluoroazetidin-1-yl)ethanone]",–,0.46,92

# Reference: patent US11214563B2 (JANSSEN PHARMACEUTICA NV, priority 2019, dated 2022)
